# Target: T1, ArtinM (Artocarpus integer, UniProt Q7M1T4)
# T1 construct: tetramer
# T1 sequence (Q7M1T4 1-149): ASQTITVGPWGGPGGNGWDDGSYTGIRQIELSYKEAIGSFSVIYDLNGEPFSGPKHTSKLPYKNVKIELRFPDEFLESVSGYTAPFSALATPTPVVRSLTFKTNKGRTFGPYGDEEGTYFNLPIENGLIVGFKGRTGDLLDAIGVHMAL
# Experiment: inhibition of lectin precipitation, western blot
# Assay type: binding
# Settings: 1 mM trimannoside pre-incubated, 4 °C; lysate of HEK cells transfected with CD14 or TLR2; carbohydrate recognition site, competes with glycoprotein N-glycans
# Procedure: inhibition of lectin precipitation, western blot on […] | CD14 and TLR2 were not detected when the procedure was carried out with […]
smiles,measurement,value
OC[C@H]1O[C@H](OC[C@H]2OC(O)[C@@H](O)[C@@H](O[C@H]3O[C@H](CO)[C@@H](O)[C@H](O)[C@@H]3O)[C@@H]2O)[C@@H](O)[C@@H](O)[C@@H]1O (stereo partly shown) [Manα1-3(Manα1-6)Man],"inhibition of lectin precipitation, western blot",CD14 and TLR2 were not detected when the procedure was carried out with ArtinM

# From article PMC5539197, “CD14 is critical for TLR2-mediated M1 macrophage activation triggered by N-glycan recognition” (Scientific Reports, 2017)
